Among the data in ChEMBL document CHEMBL1201862, “PubChem BioAssay data set” (2004) are AC50 and IC50 values, retold here.

One assay deals with Erythrocyte. Nature of the assay: FACS-based assay to assess parasite growth inhibition 96 hr Measured in Cell-Based System Using Flow Cytometry - 2126-05_Inhibitor_Dose_DryPowder_Activity. [Related pubchem assays (depositor defined):AID488774]. The class given is functional. The settings on record: Homo sapiens.
Assay [1] is described as follows: FACS-based assay to assess parasite growth inhibition 48 hr Measured in Cell-Based System Using Flow Cytometry - 2126-03_Inhibitor_Dose_DryPowder_Activity. [Related pubchem assays (depositor defined):AID488774]. The class given is functional. The note with it: Homo sapiens. A general note: A flow cytometer gives signals particle by particle.
The nature of assay [2]: A cell-based HTS for delayed death inhibitors of the malarial parasite plastid Measured in Microorganism System Using Plate Reader - 2126-02_Inhibitor_Dose_DryPowder_Activity. It is filed as functional, organism-based.
Assay [3] can be described thus: A cell-based HTS for delayed death inhibitors of the malarial parasite plastid Measured in Microorganism System Using Plate Reader - 2126-01_Inhibitor_Dose_DryPowder_Activity. It is filed as functional, organism-based.
The target in assay [4] is Melanin-concentrating hormone receptor 1 (Homo sapiens, UniProt Q99705). The assay is described as follows: Late-stage fluorescence-based counterscreen for antagonists of the G-protein coupled receptor 7 (GPR7): cell-based dose response assay to identify antagonists of the melanin-concentrating hormone receptor 1 (MCHR1) Set 5. The class given is functional. A general note: Counterscreens check selectivity or assay interference.

The source made the active and inactive calls. Unless noted, no cut-off for these calls is given here.

Sequence of Melanin-concentrating hormone receptor 1 (Q99705 whole entry): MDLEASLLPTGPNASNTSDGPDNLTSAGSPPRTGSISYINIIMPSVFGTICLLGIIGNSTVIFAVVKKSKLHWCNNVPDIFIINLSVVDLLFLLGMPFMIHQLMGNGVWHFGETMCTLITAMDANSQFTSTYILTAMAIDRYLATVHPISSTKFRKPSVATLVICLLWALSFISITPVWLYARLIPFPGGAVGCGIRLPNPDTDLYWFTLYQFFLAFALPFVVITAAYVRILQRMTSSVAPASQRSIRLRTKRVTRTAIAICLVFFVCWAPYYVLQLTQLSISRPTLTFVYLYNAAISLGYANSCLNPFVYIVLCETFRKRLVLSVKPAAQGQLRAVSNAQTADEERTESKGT

Regarding `COCCOC(=O)N(C)C[C@@H]1OCCCC[C@H](C)Oc2ccc(NC(=O)Nc3ccccc3)cc2C(=O)N([C@@H](C)CO)C[C@H]1C`, the AC50 is 13.4 µM (active) in the assay with Erythrocyte, 10.9 µM (active) in assay [1], > 5 µM (inactive) in assay [2] and > 5 µM (inactive) in assay [3].
`CCc1cccc(Oc2c(Cl)cnn(Cc3cccc4ccccc34)c2=O)c1`: in assay [4], the IC50 was > 20 µM (inactive).

For orientation: AC50 means the concentration giving half of the maximal activity seen. For orientation: IC50 means the point on the concentration scale where inhibition reaches its midpoint.
